{"source": "ChEMBL document CHEMBL6114969", "about": "“Ultra-short lipopeptides containing d-amino acid exhibiting excellent stability and antibacterial activity against gram-positive bacteria” (Eur J Med Chem, 2025)", "key": {"[1]": {"tested_on": "Staphylococcus aureus", "test": "Synergistic antibacterial activity against methicillin-resistant Staphylococcus aureus ATCC 33591 assessed as fractional inhibitory concentration index upto 2 times MIC incubated for 18 to 24 hrs in presence of imipenem by checkerboard assay", "assay_type": "functional", "details": "time 18-24 hrs"}, "[2]": {"tested_on": "Staphylococcus aureus", "test": "Bactericidal activity against methicillin-resistant Staphylococcus aureus ATCC 33591 at 4 times MIC incubated for 24 hrs in presence of 8 ug/ml LTA by absorbance based assay", "assay_type": "functional, organism-based"}, "[3]": {"test": "Toxicity in Balb/c mouse assessed as body weight change at 20 to 80 mg/kg, ip measured after 7 days", "assay_type": "organism-based", "details": "in vivo, 168 h, dose 20-80 mg/kg, time 7 day"}, "[4]": {"test": "Toxicity in Balb/c mouse assessed as change in kidney co-efficient at 20 to 80 mg/kg, ip measured after 7 days", "assay_type": "organism-based", "details": "in vivo, 168 h, dose 20-80 mg/kg, time 7 day"}, "[5]": {"tested_on": "Staphylococcus aureus", "test": "(§1) Antibacterial activity against methicillin-resistant Staphylococcus aureus ATCC 33591 infected in Balb/c mouse model of skin wound infection assessed as reduction in inflammatory cell infiltration in skin at 10 mg/kg, ip administered thrice at 1, 24 and 48 hrs post-infection measured after 14 days in presence of polymyxin B by H and E staining based analysis", "assay_type": "functional, organism-based", "details": "time 14.0 day"}, "[6]": {"tested_on": "Staphylococcus aureus", "test": "Synergistic antibacterial activity against methicillin-resistant Staphylococcus aureus ATCC 33591 assessed as fractional inhibitory concentration index upto 2 times MIC incubated for 18 to 24 hrs in presence of gentamicin by checkerboard assay", "assay_type": "functional", "details": "time 18-24 hrs"}, "[7]": {"tested_on": "Staphylococcus aureus", "test": "Antibacterial activity against methicillin-resistant Staphylococcus aureus ATCC 33591 infected in Balb/c mouse model of acute systemic infection assessed as reduction in inflammatory cell infiltration in lung at 10 mg/kg, ip measured after 5 days by H and E staining based analysis", "assay_type": "functional, organism-based", "details": "time 5.0 day"}, "[8]": {"tested_on": "Staphylococcus aureus", "test": "Synergistic antibacterial activity against methicillin-resistant Staphylococcus aureus ATCC 33591 assessed as fractional inhibitory concentration index upto 2 times MIC incubated for 18 to 24 hrs in presence of polymyxin B by checkerboard assay", "assay_type": "functional", "details": "time 18-24 hrs"}, "[9]": {"tested_on": "Staphylococcus aureus", "test": "Synergistic bactericidal activity against methicillin-resistant Staphylococcus aureus ATCC 33591 incubated for 18 to 24 hrs in presence of Polymyxin B by time-kill assay", "assay_type": "functional, organism-based", "details": "time 18-24 hrs"}, "[10]": {"test": "Hemolytic activity in mouse Red blood cells incubated for 1 hr by absorbance based analysis", "assay_type": "toxicity, cell-based", "details": "erythrocyte"}, "[11]": {"test": "Toxicity in Balb/c mouse assessed as cell swelling in kidney at 80 mg/kg, ip measured after 7 days by H and E staining based analysis", "assay_type": "organism-based", "details": "in vivo, 168 h, time 7 day"}, "[12]": {"tested_on": "Staphylococcus aureus", "test": "Bactericidal activity against methicillin-resistant Staphylococcus aureus ATCC 33591 at 2 times MIC incubated for 6 hrs by time-kill assay relative to control", "assay_type": "functional"}, "[13]": {"tested_on": "Staphylococcus aureus", "test": "Induction of drug resistance in Staphylococcus aureus ATCC 25923 at sub-MIC measured after 15 passages", "assay_type": "functional, organism-based"}, "[14]": {"tested_on": "Staphylococcus aureus", "test": "Induction of morphological changes in methicillin-resistant Staphylococcus aureus ATCC 33591 assessed as content leakage at 4 times MIC incubated for 2 hrs by SEM analysis", "assay_type": "functional, organism-based"}, "[15]": {"tested_on": "Staphylococcus aureus", "test": "Inhibition of gentamicin-induced drug resistance in Staphylococcus aureus ATCC 25923 at sub-MIC measured upto 15 passages", "assay_type": "functional, organism-based"}, "[16]": {"tested_on": "Staphylococcus aureus", "test": "Induction of ROS production in methicillin-resistant Staphylococcus aureus ATCC 33591 at 4 times MIC measured upto 360 mins in presence of NAC by DCFH-DA dye based analysis", "assay_type": "functional, organism-based"}, "[17]": {"tested_on": "Staphylococcus aureus", "test": "Antibacterial activity against methicillin-resistant Staphylococcus aureus ATCC 33591 infected in Balb/c mouse model of acute systemic infection assessed as reduction in bleeding in kidney at 10 mg/kg, ip measured after 5 days by H and E staining based analysis", "assay_type": "functional, organism-based", "details": "time 5.0 day"}, "[18]": {"tested_on": "Staphylococcus aureus", "test": "Antibacterial activity against methicillin-resistant Staphylococcus aureus ATCC 33591 assessed as bacterial growth inhibition at 0.5 to 1 times MIC incubated for 18 to 24 hrs by time-kill assay", "assay_type": "functional, organism-based", "details": "time 18-24 hrs"}, "[19]": {"test": "Toxicity in Balb/c mouse assessed as inflammatory cell infiltration in kidney at 80 mg/kg, ip measured after 7 days by H and E staining based analysis", "assay_type": "organism-based", "details": "in vivo, 168 h, time 7 day"}, "[20]": {"tested_on": "Staphylococcus aureus", "test": "Antibacterial activity against methicillin-resistant Staphylococcus aureus ATCC 33591 incubated for 18 to 24 hrs in presence of 0.5 mg/ml of trypsin by broth microdilution method", "assay_type": "functional", "details": "time 18-24 hrs"}, "[21]": {"tested_on": "Staphylococcus aureus", "test": "Antibacterial activity against methicillin-resistant Staphylococcus aureus ATCC 33591 infected in Balb/c mouse model of acute systemic infection assessed as reduction in inflammatory cell infiltration in heart at 10 mg/kg, ip measured after 5 days by H and E staining based analysis", "assay_type": "functional, organism-based", "details": "time 5.0 day"}, "[22]": {"tested_on": "Staphylococcus aureus", "test": "Antibacterial activity against methicillin-resistant Staphylococcus aureus ATCC 33591 infected in Balb/c mouse model of acute systemic infection assessed as reduction in bacterial count in liver at 10 mg/kg, ip measured after 5 days", "assay_type": "functional, organism-based", "details": "time 5.0 day"}, "[23]": {"test": "Toxicity in Balb/c mouse assessed as change in serum CREA level at 80 mg/kg, ip measured after 7 days", "assay_type": "organism-based", "details": "in vivo, 168 h, time 7 day"}, "[24]": {"tested_on": "Staphylococcus aureus", "test": "Anti-biofilm activity against methicillin-resistant Staphylococcus aureus ATCC 33591 at 8 uM incubated for 24 hrs by MTT assay", "assay_type": "functional, organism-based"}, "[25]": {"tested_on": "Staphylococcus aureus", "test": "Inhibition of gentamicin-induced drug resistance in methicillin-resistant Staphylococcus aureus ATCC 33591 at sub-MIC measured upto 15 passages", "assay_type": "functional, organism-based"}, "[26]": {"tested_on": "Staphylococcus aureus", "test": "Antibacterial activity against methicillin-resistant Staphylococcus aureus ATCC 33591 incubated for 18 to 24 hrs in presence of 1 mg/ml of chymotrypsin by broth microdilution method", "assay_type": "functional", "details": "time 18-24 hrs"}, "[27]": {"tested_on": "Staphylococcus aureus", "test": "Antibacterial activity against methicillin-resistant Staphylococcus aureus ATCC 33591 incubated for 18 to 24 hrs in presence of 0.5 mg/ml of pepsin by broth microdilution method", "assay_type": "functional", "details": "time 18-24 hrs"}, "[28]": {"tested_on": "Staphylococcus aureus", "test": "Induction of ROS production in methicillin-resistant Staphylococcus aureus ATCC 33591 at 1 to 4 times MIC measured upto 360 mins by DCFH-DA dye based analysis", "assay_type": "functional, organism-based"}, "[29]": {"tested_on": "Staphylococcus aureus", "test": "Synergistic bactericidal activity against persistent methicillin-resistant Staphylococcus aureus ATCC 33591 incubated for 18 to 24 hrs in presence of polymyxin B by time-kill assay", "assay_type": "functional, organism-based", "details": "time 18-24 hrs"}, "[30]": {"test": "Toxicity in Balb/c mouse assessed as change in liver co-efficient at 20 to 80 mg/kg, ip measured after 7 days", "assay_type": "organism-based", "details": "in vivo, 168 h, dose 20-80 mg/kg, time 7 day"}, "[31]": {"tested_on": "Staphylococcus aureus", "test": "as §1, with “IL-1beta activity” for “inflammatory cell infiltration”, “days” for “days in presence of polymyxin B”, “IHC” for “H and E staining based”", "assay_type": "functional, organism-based", "details": "time 14.0 day"}, "[32]": {"tested_on": "Staphylococcus aureus", "test": "Antibacterial activity against ciprofloxacin-resistant Staphylococcus aureus ATCC 25923 incubated for 18 to 24 hrs", "assay_type": "functional", "details": "time 18-24 hrs"}, "[33]": {"tested_on": "Staphylococcus aureus", "test": "Antibacterial activity against methicillin-resistant Staphylococcus aureus ATCC 33591 incubated for 18 to 24 hrs in presence of 2 mg/ml of chymotrypsin by broth microdilution method", "assay_type": "functional", "details": "time 18-24 hrs"}, "[34]": {"tested_on": "Staphylococcus aureus", "test": "Antibacterial activity against Staphylococcus aureus ATCC 25923 incubated for 18 to 24 hrs by broth microdilution method", "assay_type": "functional", "details": "time 18-24 hrs"}, "[35]": {"tested_on": "Staphylococcus aureus", "test": "Antibacterial activity against methicillin-resistant Staphylococcus aureus ATCC 33591 assessed as fold change in MIC incubated for 18 to 24 hrs in presence of 10 percent FBS by broth microdilution method", "assay_type": "functional", "details": "time 18-24 hrs"}, "[36]": {"tested_on": "Staphylococcus aureus", "test": "Antibacterial activity against polymyxin B-resistant methicillin-resistant Staphylococcus aureus ATCC 33591 incubated for 18 to 24 hrs", "assay_type": "functional", "details": "time 18-24 hrs"}}, "note": "Activity calls are given as the source filed them. The rule behind the calls is not given here."}
{"compound": "CCCCCCCCCCCC(=O)N[C@H](CCCNC(=N)N)C(=O)N[C@H](CCCNC(=N)N)C(=O)N[C@H](Cc1c[nH]c2ccccc12)C(=O)O", "values": [{"measurement": "fractional inhibitory concentration index (FICI)", "setting": "[1]", "value": 0.25}, {"measurement": "Activity", "setting": "[2]", "value": "inactive"}, {"measurement": "Activity", "setting": "[3]", "value": "Non-toxic"}, {"measurement": "Activity", "setting": "[4]", "value": "Toxic"}, {"measurement": "Activity", "setting": "[5]", "value": "Active"}, {"measurement": "fractional inhibitory concentration index (FICI)", "setting": "[6]", "value": 0.125}, {"measurement": "Activity", "setting": "[7]", "value": "Active"}, {"measurement": "fractional inhibitory concentration index (FICI)", "setting": "[8]", "value": 0.125}, {"measurement": "Activity", "setting": "[9]", "value": "Active; Compound Exhibited Better Effect Than Compound Alone-Treatment; Although It Was Lower Than Polymyxin B, It Significantly Reduced Dosage Of Polymyxin B And Reduced Toxicity Of The Drug"}, {"measurement": "HC10", "setting": "[10]", "value": 64, "unit": "µM"}, {"measurement": "Activity", "setting": "[11]", "value": "Toxic"}, {"measurement": "Activity", "setting": "[12]", "value": 100, "unit": "%"}, {"measurement": "Activity", "setting": "[13]", "value": "inactive"}, {"measurement": "Activity", "setting": "[14]", "value": "Active"}, {"measurement": "inhibition", "setting": "[15]", "value": "Active"}, {"measurement": "Activity", "setting": "[16]", "value": "inactive"}, {"measurement": "Activity", "setting": "[17]", "value": "Active"}, {"measurement": "inhibition", "setting": "[18]", "value": "Active"}, {"measurement": "Activity", "setting": "[19]", "value": "Toxic"}, {"measurement": "MIC", "setting": "[20]", "value": 4, "unit": "µM"}, {"measurement": "Activity", "setting": "[21]", "value": "Active"}, {"measurement": "Activity", "setting": "[22]", "value": "Active"}, {"measurement": "Activity", "setting": "[23]", "value": "Toxic"}, {"measurement": "Activity", "setting": "[24]", "value": "Active; Compound Activity Was Slightly Weaker Than Vancomycin But Significantly Better Than Polymyxin B, Imipenem, Ciprofloxacin And Gentamicin"}, {"measurement": "inhibition", "setting": "[25]", "value": "Active"}, {"measurement": "MIC", "setting": "[26]", "value": 4, "unit": "µM"}, {"measurement": "MIC", "setting": "[27]", "value": 8, "unit": "µM"}, {"measurement": "Activity", "setting": "[28]", "value": "Active"}, {"measurement": "Activity", "setting": "[29]", "value": "Dose-dependent-effect"}, {"measurement": "Activity", "setting": "[30]", "value": "Toxic"}, {"measurement": "Activity", "setting": "[31]", "value": "Active"}, {"measurement": "MIC", "setting": "[32]", "value": 8, "unit": "µM"}, {"measurement": "MIC", "setting": "[33]", "value": 4, "unit": "µM"}, {"measurement": "MIC", "setting": "[34]", "value": 4, "unit": "µM"}, {"measurement": "fold change (FC)", "setting": "[35]", "value": 8}, {"measurement": "MIC", "setting": "[36]", "value": 16, "unit": "µM"}]}
